The text below walks through data of patent US11254651B2, “Histone methyltransferase inhibitors” (GLOBAL BLOOD THERAPEUTICS, INC., priority 2016, dated 2022).

Where a name gives a salt, the structure may show the parent alone.

In the test the target is T1, G9a (Homo sapiens, UniProt Q96KQ7).
T1 sequence (Q96KQ7 1-1210): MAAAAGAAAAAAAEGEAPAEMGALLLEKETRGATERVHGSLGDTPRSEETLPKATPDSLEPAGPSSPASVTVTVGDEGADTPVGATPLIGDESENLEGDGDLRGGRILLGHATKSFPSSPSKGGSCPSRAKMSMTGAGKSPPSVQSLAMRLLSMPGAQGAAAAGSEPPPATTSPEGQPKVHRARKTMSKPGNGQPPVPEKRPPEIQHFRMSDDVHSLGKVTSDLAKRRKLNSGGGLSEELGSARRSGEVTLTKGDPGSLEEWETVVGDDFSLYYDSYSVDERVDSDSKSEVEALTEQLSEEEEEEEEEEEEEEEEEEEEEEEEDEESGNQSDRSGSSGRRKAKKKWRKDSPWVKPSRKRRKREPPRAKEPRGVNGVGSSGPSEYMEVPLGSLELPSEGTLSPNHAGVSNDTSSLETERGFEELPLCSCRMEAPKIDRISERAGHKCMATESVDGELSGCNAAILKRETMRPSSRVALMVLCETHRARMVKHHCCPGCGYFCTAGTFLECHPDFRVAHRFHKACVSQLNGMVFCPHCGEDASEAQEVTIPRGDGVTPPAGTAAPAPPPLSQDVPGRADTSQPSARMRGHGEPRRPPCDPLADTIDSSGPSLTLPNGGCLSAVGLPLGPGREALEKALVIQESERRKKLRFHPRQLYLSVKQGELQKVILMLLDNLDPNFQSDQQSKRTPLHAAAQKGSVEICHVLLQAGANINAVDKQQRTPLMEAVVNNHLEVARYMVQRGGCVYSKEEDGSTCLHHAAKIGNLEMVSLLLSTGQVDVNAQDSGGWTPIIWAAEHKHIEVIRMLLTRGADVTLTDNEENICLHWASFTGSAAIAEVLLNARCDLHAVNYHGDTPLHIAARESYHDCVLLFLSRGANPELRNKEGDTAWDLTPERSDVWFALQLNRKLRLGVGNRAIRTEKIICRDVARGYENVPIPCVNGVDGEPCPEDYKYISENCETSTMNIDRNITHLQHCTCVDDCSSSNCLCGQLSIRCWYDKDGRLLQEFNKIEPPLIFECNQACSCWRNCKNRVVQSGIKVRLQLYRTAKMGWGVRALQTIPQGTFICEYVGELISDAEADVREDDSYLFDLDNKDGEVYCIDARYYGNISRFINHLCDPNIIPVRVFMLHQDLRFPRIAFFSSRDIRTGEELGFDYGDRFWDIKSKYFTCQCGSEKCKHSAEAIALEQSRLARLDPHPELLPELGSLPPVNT
In words: G9a AlphaLISA enzymatic activity assay. Type of test: biochemical. Particulars: 0.15 nM G9a, 15 uM S-adenosyl-methionine, 100 nM biotinylated histone 3 peptide (1-21), 1 hour room temperature. An excerpt:
The G9a AlphaLISA assay was used to detect the methyl modifications of a biotinylated histone H3 peptide by the compounds. These modifications are done by the histone methyl transferase activity of the G9a enzyme. The assay consists of reading a chemiluminescent signal at 615 nm; this signal is generated by a laser excitation at 680 nm that transfers a reactive singlet oxygen between the donor beads and acceptor beads. Donor beads are streptavidin conjugated and bind to the biotin on the peptide. Acceptor beads are conjugated with an antibody that recognizes the specific G9a methyl mark on the peptide. If there is a methyl mark on the peptide, the acceptor beads will bind to the peptide. Upon binding, the acceptor beads will be in close proximity (<200 nm) of the donor beads and when the donor beads are excited, the transfer of the oxygen can occur and a strong signal will be generated. If there is no methyl mark, the interaction between beads will not occur and signal will be at background levels.
For the assay, the following buffer was used to set up reactions: 50 mM Tris-HCl pH9, 50 mM NaCl, 0.01% Tween-20 and 1 mM DTT (added fresh prior to starting the reactions). The assay is set up by adding a final concentration of 0.15 nM G9a, 15 uM S-adenosyl-methionine and, 100 nM biotinylated histone 3 peptide (1-21). The reaction is incubated at room temperature for 1 hour, and subsequently quenched by the addition of the acceptor beads (anti-H3k9me2 AlphaLISA acceptor beads, PerkinElmer #AL117) at a final concentration of 20 ug/mL. The acceptor beads are incubated for 1 hour. After 1 hour, the donor beads are added at a final concentration of 20 ug/mL (Alpha Streptavidin donor beads, PerkinElmer #6760002). Donor beads are incubated for 0.5 hours. Both donor and acceptor beads are resuspended in AlphaLISA 5X Epigenetics Buffer 1 Kit (PerkinElmer #AL008) prior to addition to the reaction. All manipulations and incubations with the donor and acceptor beads are done in subdued light. Signal is detected in an EnVision plate reader in Alpha mode (see ACS Med Chem Lett. 2014 Jan. 2; 5(2):205-9. doi: 10.1021/m1400496h. eCollection 2014. Discovery and development of potent and selective inhibitors of histone methyltransferase g9a.)
Percent inhibition was calculated for each compound dilution and the concentration that produced 50% inhibition was calculated. This value is presented as the IC50.

The molecule `COc1cc2c(NC(C)C)c3cccc(F)c3nc2cc1OCCCN1CCCC1` [Entry 120, 5-fluoro-2-methoxy-N-(propan-2-yl)-3-[3-(pyrrolidin-1-yl)propoxy]acridin-9-amine formate] came in with a 50% inhibitory concentration (IC50) of 62 nM.
For `COCCNc1c2c(nc3cc(OCCCN4CCCC4)c(OC)cc13)CCC2` [Entry 38, 7-methoxy-N-(2-methoxyethyl)-6-[3-(pyrrolidin-1-yl)propoxy]-1H,2H,3H-cyclopenta[b]quinolin-9-amine formate], half-maximal inhibition (IC50) required 16 nM.
Under `COc1cc2c(NC3CC(=O)N(C4CCC4)C3)c3ccccc3nc2cc1OCCCN1CCCC1` (stereo not shown) [Entry 87, 1-cyclobutyl-4-({2-methoxy-3-[3-(pyrrolidin-1-yl)propoxy]acridin-9-yl}amino)pyrrolidin-2-one trifluoroacetate] stands 18.5 nM; under `COc1cc2c(NC3CC(OC)C3)c3c(nc2cc1OCCCN1CCCC1)CCC3` (stereo not shown) [Entry 56, 7-methoxy-N-(3-methoxycyclobutyl)-6-[3-(pyrrolidin-1-yl)propoxy]-1H,2H,3H-cyclopenta[b]quinolin-9-amine formate], 16 nM.
As to `COC(=O)CNc1c2ccccc2nc2cc(OCCCN3CCCC3)c(OC)cc12` [Entry 105, methyl 2-({2-methoxy-3-[3-(pyrrolidin-1-yl)propoxy]acridin-9-yl}amino)acetate formate], 20.6 nM corresponded to half-maximal inhibition (IC50).
Molecule `COc1cc2c(NC3CNC(=O)C3)c3c(nc2cc1OCCCN1CCCC1)CCC3` (stereo not shown) [Entry 60, 4-({7-methoxy-6-[3-(pyrrolidin-1-yl)propoxy]-1H,2H,3H-cyclopenta[b]quinolin-9-yl}amino)pyrrolidin-2-one trifluoroacetate] had an IC50 of 14.6 nM.
Molecule `COc1cc2c(NC(C)C)c3cnccc3nc2cc1OCCCN1CCCC1` [Entry 121, 8-methoxy-N-(propan-2-yl)-7-[3-(pyrrolidin-1-yl)propoxy]benzo[b]1,6-naphthyridin-10-amine formate] had an IC50 of 64.2 nM.
Under `COc1cc2c(NCC(=O)O)c3ccccc3nc2cc1OCCCN1CCCC1` [Entry 104, 2-({2-methoxy-3-[3-(pyrrolidin-1-yl)propoxy]acridin-9-yl}amino)acetic acid formate] stands 134 nM; under `CNc1c2ccccc2nc2cc(OCCCN3CCCC3)c(C)cc12` [Entry 11, N,2-dimethyl-3-[3-(pyrrolidin-1-yl)propoxy]acridin-9-amine formate], 1230 nM; under `COc1cc2c(NC3CCC(C)(O)CC3)c3ccccc3nc2cc1OCCCN1CCCC1` [Entry 99, (1R,4R)-4-({2-methoxy-3-[3-(pyrrolidin-1-yl)propoxy]acridin-9-yl}amino)-1-methylcyclohexan-1-ol trifluoroacetate], 17 nM.
Molecule `CCN(CC)CCCOc1cc2nc3ccccc3c(NC)c2cc1OC` [Entry 14, 3-[3-(diethylamino)propoxy]-2-methoxy-N-methylacridin-9-amine trifluoroacetate] showed an IC50 of 76 nM.
Under `COc1cc2c(NCc3ccccn3)c3c(nc2cc1OCCCN1CCCC1)CCC3` [Entry 54, 7-methoxy-N-[pyridin-2-yl)methyl]-6-[3-(pyrrolidin-1-yl)propoxy]-1H,2H,3H-cyclopenta[b]quinolin-9-amine formate] stands 60.1 nM; under `COC(=O)N1CC(CNc2c3c(nc4cc(OCCCN5CCCC5)c(OC)cc24)CCC3)C1` [Entry 71, methyl 3-[({7-methoxy-6-[3-(pyrrolidin-1-yl)propoxy]-1H,2H,3H-cyclopenta[b]quinolin-9-yl}amino)methyl]azetidine-1-carboxylate formate], 17 nM.
Take `COc1cc2cc3c(nc2cc1OCCCN1CCCC1)CCCC3` [Entry 17, 7-methoxy-6-[3-(pyrrolidin-1-yl)propoxy]-1,2,3,4-tetrahydroacridine formate]: the IC50 amounted to 510 nM.
Take `COc1cc2c(NCC3(C)CC3)c3c(nc2cc1OCCCN1CCCC1)CCC3` [Entry 44, 7-methoxy-N-[(1-methylcyclopropyl)methyl]-6-[3-(pyrrolidin-1-yl)propoxy]-1H,2H,3H-cyclopenta[b]quinolin-9-amine formate]: the IC50 stood at 19 nM.
`COc1cc2c(N[C@H]3C[C@@H](O)C3)c3c(nc2cc1OCCCN1CCCC1)CCC3` [Entry 57, (1s,3s)-3-({7-methoxy-6-[3-(pyrrolidin-1-yl)propoxy]-1H,2H,3H-cyclopenta[b]quinolin-9-yl}amino)cyclobutan-1-ol formate] returned an IC50 of 33.1 nM.
Molecule `CNc1c2ccccc2nc2cc(OCCCN3CCCC3)c(Cl)cc12` [Entry 9, 2-chloro-N-methyl-3-[3-(pyrrolidin-1-yl)propoxy]acridin-9-amine formate] yielded a half-inhibitory concentration (IC50) of 26.1 nM.
Take `CNc1c2ccccc2nc2cc(OCCCN3CCC(F)C3)c(OC)cc12` (stereo not shown) [Entry 117, 3-[3-(3-fluoropyrrolidin-1-yl)propoxy]-2-methoxy-N-methylacridin-9-amine formate]: it took 139 nM to reach half-maximal inhibition (IC50).
`COc1cc2c(NCC(F)(F)F)c3c(nc2cc1OCCCN1CCCC1)CCC3` [Entry 50, 7-methoxy-6-[3-(pyrrolidin-1-yl)propoxy]-N-(2,2,2-trifluoroethyl)-1H,2H,3H-cyclopenta[b]quinolin-9-amine trifluoroacetate] registered an IC50 of 26 nM.
`COc1cc2c(NC(C)C)c3c(nc2cc1OCCCN1CCCC1)CCC3` [Entry 19, 7-methoxy-N-(propan-2-yl)-6-[3-(pyrrolidin-1-yl)propoxy]-1H,2H,3H-cyclopenta[b]quinolin-9-amine formate] registered an IC50 of 10 nM.
In turn, `COc1cc2c(NC3CCOCC3)c3ccccc3nc2cc1OCCCN1CCCC1` [Entry 3, 2-methoxy-N-(oxan-4-yl)-3-[3-(pyrrolidin-1-yl)propoxy]-acridin-9-amine trifluoroacetate] had an IC50 of 4.4 nM.
In turn, `COc1cc2c(Nc3ccccn3)c3c(nc2cc1OCCCN1CCCC1)CCC3` [Entry 40, N-{7-methoxy-6-[3-(pyrrolidin-1-yl)propoxy]-1H,2H,3H-cyclopenta[b]quinolin-9-yl}pyridin-2-amine formate] came in with a concentration for half-maximal inhibition (IC50) of 150 nM.
`COc1cc2c(NCCC#N)c3ccccc3nc2cc1OCCCN1CCCC1` [Entry 98, 3-({2-methoxy-3-[3-(pyrrolidin-1-yl)propoxy]acridin-9-yl}amino)propanenitrile trifluoroacetate] showed an IC50 of 6.8 nM.
In turn, `COc1cc2c(NC3CC3)c3c(nc2cc1OCCCN1CCCC1)CCC3` [Entry 31, N-cyclopropyl-7-methoxy-6-[3-(pyrrolidin-1-yl)propoxy]-1H,2H,3H-cyclopenta[b]quinolin-9-amine trifluoroacetate] registered a 50% inhibitory concentration (IC50) of 17.5 nM.
In turn, `COCCCNc1c2c(nc3cc(OCCCN4CCCC4)c(OC)cc13)CCC2` [Entry 73, 7-methoxy-N-(3-methoxypropyl)-6-[3-(pyrrolidin-1-yl)propoxy]-1H,2H,3H-cyclopenta[b]quinolin-9-amine formate] showed an IC50 of 11.2 nM.

The IC50 is the concentration that inhibits the measured activity by half.
